Read-outs that look alike come from different tables or passages of the source. Starred links: 1 amine or outer side, 2 acyl side, 3 side chain; linkers in the order of their positions; H or OH if unused. Non-standard residues stand in square brackets, D forms with d. Groups on a side chain read outwards from the residue. *: point of attachment. Butyryl(4-SO2NHCO(CH2)16Tz) = O=C(CCCCCCCCCCCCCCCCc1nnn[nH]1)NS(=O)(=O)CCCC(=O)*; C20 diacid = O=C(O)CCCCCCCCCCCCCCCCCCC(=O)*; C18 diacid = O=C(O)CCCCCCCCCCCCCCCCC(=O)*; C16 diacid = O=C(O)CCCCCCCCCCCCCCC(=O)*; γGlu = O=C(O)[C@H](CCC(=O)[*:2])N[*:1]; X2 = O=C(CCCCCCCCCCCCCCCCc1nnn[nH]1)*; εLys = N[C@@H](CCCCN[*:1])C(=O)[*:2]; Trx = NC[C@H]1CC[C@H](C(=O)O)CC1; AEEA = NCCOCCOCC(=O)O; Aib = CC(C)(N)C(=O)O; Ahx = NCCCCCC(=O)O
Key:
human GLP-1 receptor = biological target: T1, human GLP-1 receptor (Homo sapiens, UniProt P43220); assay: Human GLP-1 receptor in vitro potency assay (CRE-luciferase reporter, BHK cells); assay type: cell-based
T1 construct: expressed in transfected cells; host or cells: BHK (Baby Hamster Kidney) cells, clone BHK 467-12A KZ-10, stably transfected, with CRE-luciferase reporter
T1 sequence (P43220 24-463): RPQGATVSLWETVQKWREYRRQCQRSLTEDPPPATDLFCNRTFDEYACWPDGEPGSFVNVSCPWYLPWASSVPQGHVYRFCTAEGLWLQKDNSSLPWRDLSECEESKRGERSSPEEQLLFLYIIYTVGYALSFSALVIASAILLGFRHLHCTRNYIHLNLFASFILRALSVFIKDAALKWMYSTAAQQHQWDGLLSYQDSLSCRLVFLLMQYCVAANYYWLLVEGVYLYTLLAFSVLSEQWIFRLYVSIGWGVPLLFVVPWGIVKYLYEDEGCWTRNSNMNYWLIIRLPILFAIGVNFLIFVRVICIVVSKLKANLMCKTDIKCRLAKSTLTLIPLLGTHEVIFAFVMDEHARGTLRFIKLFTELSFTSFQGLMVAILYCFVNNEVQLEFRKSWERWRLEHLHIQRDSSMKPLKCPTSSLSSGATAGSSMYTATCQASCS
Protocol: It is thus possible to measure GLP-1 receptor activity using a CRE-luciferase reporter gene introduced into Baby Hamster Kidney (BHK) cells co-expressing the GLP-1 receptor.
Cells were aliquoted and stored at -180° C. until use.
Plates were sealed and incubated at room temperature with gentle shaking for 30 minutes while protected from light. Luminescence was detected on a luminescence plate reader e.g. a Synergy 2 (BioTek).

[1] = biological target: T2, human amylin receptor (hAmyR3) (Homo sapiens, UniProt O60896+P30988); assay: Human amylin receptor in vitro potency assay (CRE-luciferase reporter, BHK cells); assay type: cell-based; conditions: for EC50: read-out: Human AmyR3 potency [EC50 (pM)];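 as to all read-outs here: BHK cells expressing human calcitonin receptor plus RAMP3 (amylin-3 receptor) with a CRE-luciferase reporter, agonist activity read as luminescence from cAMP-driven transcription, 7-point serial dilutions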
T2 construct: host or cells: BHK cells (Hollex-1 line: human calcitonin receptor (a) + CRE-Luc), further transfected with human RAMP3
T2 sequence (P30988 25-474): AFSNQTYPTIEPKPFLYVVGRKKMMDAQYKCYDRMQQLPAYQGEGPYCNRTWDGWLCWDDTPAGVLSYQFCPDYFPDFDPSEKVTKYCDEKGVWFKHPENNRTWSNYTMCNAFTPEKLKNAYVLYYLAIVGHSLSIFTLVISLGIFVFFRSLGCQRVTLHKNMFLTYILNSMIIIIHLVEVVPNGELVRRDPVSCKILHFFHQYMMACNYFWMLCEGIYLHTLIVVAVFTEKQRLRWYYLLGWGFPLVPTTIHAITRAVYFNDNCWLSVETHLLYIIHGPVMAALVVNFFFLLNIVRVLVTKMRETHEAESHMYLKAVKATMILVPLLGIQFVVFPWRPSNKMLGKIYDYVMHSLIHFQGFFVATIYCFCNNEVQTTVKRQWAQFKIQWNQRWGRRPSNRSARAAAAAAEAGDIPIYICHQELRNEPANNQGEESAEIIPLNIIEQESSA
T2 sequence (O60896 24-148): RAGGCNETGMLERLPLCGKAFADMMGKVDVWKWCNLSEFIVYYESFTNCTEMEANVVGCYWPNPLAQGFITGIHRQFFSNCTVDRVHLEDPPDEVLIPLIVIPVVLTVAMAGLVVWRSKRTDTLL

[2] = Table 4a, BHK cells expressing human GLP-1R, CRE-Luc, 3 hours, read-out: Human GLP-1R potency [EC50 (pM)]
[3] = Table 4a, BHK hAmyR3/CRE-Luc cells, 3 hours
[4] = Table 4c, further comparator compounds

EC50 (human GLP-1 receptor; [2]) | EC50 [1, 3] | Substance | also measured
1.2 pM | 23.5 pM | H-H[Aib]EGTFTSDVSSYLEEQAARK([AEEA-AEEA-γGlu-C18 diacid])FIEWLVRGRK([AEEA-AEEA-γGlu-C18 diacid])GGEASELSTAALGRLSAELHELATLPRTETGSGSP-NH2 [Compound 0129] | 
19.3 pM | 4.1 pM | H-H[Aib]EGTFTSDVSSYLEEQAARK([AEEA-AEEA-γGlu-C20 diacid])FIAWLVRGRGGGGGEASELSTAALGRLSAELHELATLPRTETGSGSP-NH2 [Compound 0562] | 
17 pM | 26.4 pM | H-H[Aib]EGTFTSDVSSYLEEQAARK([AEEA-AEEA-γGlu-C20 diacid])FIEWLVRGASELSTAALGRLSAELHELATLPRTETGSGSP-NH2 [Compound 0581] | 
11.9 pM | 27.3 pM | H-H[Aib]EGTFTSDVSSYLEEQAARK([γGlu-C18 diacid])FIAWLVRGRGGGGGGGGK([γGlu-C18 diacid])EASELSTAALGRLSAELHELATLPRTETGSGSP-NH2 [Compound 0160] | 
28.2 pM | 5.3 pM | H-H[Aib]EGTFTSDVSSYLEEQAARK([γGlu-γGlu-γGlu-γGlu-C20 diacid])FIAWLVRGRGGGGGEASELSTAALGRLSAELHELATLPRTETGSGSP-NH2 [Compound 0633] | 
20.7 pM | 7.7 pM | H-H[Aib]EGTFTSDVSSYLEGQAAK([AEEA-AEEA-γGlu-C18 diacid])EFIAWLVRGRGGGGEASELSTAALGRLSAELHELATLPRTETGSGSP-NH2 [Compound 0040] | 
18.5 pM | 10.9 pM | H-H[Aib]EGTFTSDVSSYLEGQAAK([AEEA-AEEA-γGlu-C18 diacid])EFIAWLVRGRGGGGGGGGGGGGGEASELSTAALGRLSAELHELATLPRTETGSGSP-NH2 [Compound 0092] | 
7.5 pM | 8.6 pM | H-H[Aib]EGTFTSDVSSYLEGQAAK([AEEA-AEEA-γGlu-C18 diacid])EFIAWLVRGRGGGGGGGGGGGGGGGGGEASELSTAALGRLSAELHELATLPRTETGSGSP-NH2 [Compound 0093] | 
13.7 pM | 26.5 pM | H-H[Aib]EGTFTSDVSSYLEGQAAK([AEEA-AEEA-γGlu-C18 diacid])EFIAWLVRGRGGQEPGQEPEASELSTAALGRLSAELHELATLPRTETGSGSP-NH2 [Compound 0019] | 
22.6 pM | 22.6 pM | H-H[Aib]EGTFTSDVSSYLEGQAAK([AEEA-AEEA-γGlu-C18 diacid])EFIAWLVRGRGQAPGQEPEASELSTAALGRLSAELHELATLPRTETGSGSP-NH2 [Compound 0156] | 
8.8 pM | 14 pM | H-H[Aib]EGTFTSDVSSYLEGQAAK([AEEA-AEEA-γGlu-C18 diacid])EFIAWLVRGRGQEPGQAPEASELSTAALGRLSAELHELATLPRTETGSGSP-NH2 [Compound 0026] | 
7.5 pM | 11.3 pM | H-H[Aib]EGTFTSDVSSYLEGQAAK([AEEA-AEEA-γGlu-C20 diacid])EFIAWLVRGRGGGGGGGGGEASELSTAALGRLSAELHELATLPRTETGSGSP-NH2 [Compound 0094] | 
28.7 pM | 18.4 pM | H-H[Aib]EGTFTSDVSSYLEGQAAK([AEEA-AEEA-γGlu-C20 diacid])EFIAWLVRGRGQAPGQEPEASELSTAALGRLSAELHELATLPRTETGSGSP-NH2 [Compound 0157] | 
10.5 pM | 28.4 pM | H-H[Aib]EGTFTSDVSSYLEGQAAK([AEEA-AEEA-γGlu-C20 diacid])EFIAWLVRGRGQEPGQAPEASELSTAALGRLSAELHELATLPRTETGSGSP-NH2 [Compound 0202] | 
30.3 pM | 19.3 pM | H-H[Aib]EGTFTSDVSSYLEGQAAK([εLys-AEEA-AEEA-γGlu-C18 diacid])EFIAWLVRGRGGGGGGGGGEASELSTAALGRLSAELHELATLPRTETGSGSP-NH2 [Compound 0159] | 
7.9 pM | 49.5 pM | H-H[Aib]EGTFTSDVSSYLEGQAAREFIAWLVRGK([AEEA-AEEA-γGlu-C18 diacid])GEGEGEEASELSTAALGRLSAELHELATLPRTETGSGSP-NH2 [Compound 0009] | 

More lines, now with the values behind:

Substance | EC50 (human GLP-1 receptor; [2]) | EC50 [1, 3] | also measured
H-H[Aib]EGTFTSDVSSYLEEQAAREFIAWLVRGRK([AEEA-AEEA-γGlu-X2])GGGGEASELSTAALGRLSAELHELATLPRTETGSGSP-NH2 [Compound 0655] | 3 pM | 11.4 pM | 
H-H[Aib]EGTFTSDVSSYLEEQAAREFIAWLVRGRK([AEEA-γGlu-C18 diacid])GGGGEASELSTAALGRLSAELHELATLPRTETGSGSP-NH2 [Compound 0660] | 3.9 pM | 12.7 pM | 
H-H[Aib]EGTFTSDVSSYLEEQAAREFIAWLVRGRK([Ahx-Ahx-γGlu-C18 diacid])GGGGEASELSTAALGRLSAELHELATLPRTETGSGSP-NH2 [Compound 0658] | 3.1 pM | 11 pM | 
H-H[Aib]EGTFTSDVSSYLEEQAAREFIAWLVRGRK([Ahx-Ahx-γGlu-C20 diacid])GGGGEASELSTAALGRLSAELHELATLPRTETGSGSP-NH2 [Compound 0659] | 4.7 pM | 11.5 pM | 
H-H[Aib]EGTFTSDVSSYLEEQAAREFIAWLVRGRK([γGlu-C20 diacid])EASELSTAALGRLSAELHELATLPRTETGSGSP-NH2 [Compound 0141] | 43.3 pM | 13.2 pM | 
H-H[Aib]EGTFTSDVSSYLEEQAAREFIAWLVRGRK([εLys-εLys-γGlu-C18 diacid])GGGGEASELSTAALGRLSAELHELATLPRTETGSGSP-NH2 [Compound 0656] | 4.1 pM | 13.3 pM | 
H-H[Aib]EGTFTSDVSSYLEEQAAREFIAWLVRGRK([εLys-εLys-γGlu-C20 diacid])GGGGEASELSTAALGRLSAELHELATLPRTETGSGSP-NH2 [Compound 0657] | 9.9 pM | 10.4 pM | 
H-H[Aib]EGTFTSDVSSYLEEQAAREFIAWLVRK([AEEA-AEEA-γGlu-C16 diacid])RGGGGGASELSTAALGRLSK([AEEA-AEEA-γGlu-C16 diacid])ELHELATLPRTETGSGSP-NH2 [Compound 0297] | 30.2 pM | 46 pM | 
H-H[Aib]EGTFTSDVSSYLEEQAAREFIEWLVRGK(Butyryl(4-SO2NHCO(CH2)16Tz))ASELSTAALGRLSAELHELATLPRTETGSGSP-NH2 [Compound 0147] | 36.8 pM | 33.7 pM | 
H-H[Aib]EGTFTSDVSSYLEEQAAREFIEWLVRGK(Butyryl(4-SO2NHCO(CH2)16Tz))GGGASELSTAALGRLSAELHELATLPRTETGSGSP-NH2 [Compound 0146] | 25.7 pM | 14 pM | 
H-H[Aib]EGTFTSDVSSYLEEQAAREFIEWLVRGRK([AEEA-AEEA-γGlu-Trx-C20 diacid])EAEAEASELSTAALGRLSAELHELATLPRTETGSGSP-NH2 [Compound 0179] | 8.8 pM | 35.9 pM | 
H-H[Aib]EGTFTSDVSSYLEEQAAREFIEWLVRGRK([εLys-AEEA-AEEA-γGlu-Trx-C20 diacid])EASELSTAALGRLSAELHELATLPRTETGSGSP-NH2 [Compound 0438] | 11.8 pM | 27.5 pM | 
H-H[Aib]EGTFTSDVSSYLEEQAARK(Butyryl(4-SO2NHCO(CH2)16Tz))FIAWLVRGRGEASELSTAALGRLSAELHELATLPRTETGSGSP-NH2 [Compound 0125] | 8 pM | 12.2 pM | 
H-H[Aib]EGTFTSDVSSYLEEQAARK([AEEA-AEEA-γGlu-C16 diacid])FIAWLVK([AEEA-AEEA-γGlu-C16 diacid])GRGGGEASELSTAALGRLSAELHELATLPRTETGSGSP-NH2 [Compound 0077] | 2.1 pM | 25.7 pM | 
H-H[Aib]EGTFTSDVSSYLEEQAARK([AEEA-AEEA-γGlu-C16 diacid])FIAWLVRGRGGGGGASELSTAALGRLSK([AEEA-AEEA-γGlu-C16 diacid])ELHELATLPRTETGSGSP-NH2 [Compound 0296] | 4 pM | 29.9 pM | 
H-H[Aib]EGTFTSDVSSYLEEQAARK([AEEA-AEEA-γGlu-C16 diacid])FIAWLVRGRGGGGGEASELSTAALGRLSAELHK([AEEA-AEEA-γGlu-C16 diacid])LATLPRTETGSGSP-NH2 [Compound 0509] | 7.1 pM | 29.9 pM | 
H-H[Aib]EGTFTSDVSSYLEEQAARK([AEEA-AEEA-γGlu-C16 diacid])FIEWLVRGK([AEEA-AEEA-γGlu-C16 diacid])GEGGEASELSTAALGRLSAELHELATLPRTETGSGSP-NH2 [Compound 0086] | 3.9 pM | 78.3 pM | 
H-H[Aib]EGTFTSDVSSYLEEQAARK([AEEA-AEEA-γGlu-C18 diacid])FIAWLVRGRGGGGGEASELSTAALGRLSAELHELATLPRTETGSGSP-NH2 [Compound 0639] | 1.5 pM | 4.6 pM | 
H-H[Aib]EGTFTSDVSSYLEEQAARK([AEEA-AEEA-γGlu-C18 diacid])FIEWLVRGK([AEEA-AEEA-γGlu-C18 diacid])GEGGEASELSTAALGRLSAELHELATLPRTETGSGSP-NH2 [Compound 0089] | 5.7 pM | 65.5 pM | 
H-H[Aib]EGTFTSDVSSYLEEQAARK([AEEA-AEEA-γGlu-C18 diacid])FIEWLVRGK([AEEA-AEEA-γGlu-C18 diacid])GGEASELSTAALGRLSAELHELATLPRTETGSGSP-NH2 [Compound 0128] | 9.7 pM | 110 pM | 
H-H[Aib]EGTFTSDVSSYLEGQAAKEFIAWLVRGRK([εLys-AEEA-AEEA-γGlu-C18 diacid])GGEASELSTAALGRPSAELHELATLPRTETGSGSP-NH2 [Comparator compound 0185, reference compound] |  |  | EC50 (human GLP-1 receptor; [4]): 13.1 pM; EC50 [1, 4]: 5660 pM; Ability to agonise the amylin receptor, in words ([1]; Tables 4a-4c): impaired their ability to agonise (activate) the amylin receptor
H-H[Aib]EGTFTSDVSSYLEGQAAKEIFAWLVRGRK([εLys-AEEA-AEEA-γGlu-C18 diacid])GGEASELSTAALGRLSAELHELATLPRTETGSGSP-NH2 [Comparator compound 0164, reference compound] |  |  | EC50 (human GLP-1 receptor; [4]): 852 pM; Ability to agonise the GLP-1 receptor, in words (human GLP-1 receptor; Tables 4a-4c): impaired their ability to agonise (activate) the GLP-1 receptor; EC50 [1, 4]: 29.6 pM

Source: patent US20230331803A1, “CO-AGONISTS OF THE GLP-1 AND AMYLIN RECEPTORS” (priority 2020, published 2023)
